Test results from US4447607A, “Dibenzo diazacines” (The Upjohn Company, priority 1982, dated 1984).

How the values were obtained:
thromboxane synthetase = conditions: prior art compounds, as noted in British patent specification; cited from earlier work
TXA2 synthetase = target: T1, TXA2 synthetase (Homo sapiens, UniProt P24557); assay: TXA2 inhibition test: TXA2 generated from PGH2 with human platelet microsomes, response of superfused rabbit aortic strips; format: biochemical; conditions: rabbit aorta response
T1 construct: human platelet microsomes (HPM); from tissue; host or cells: human platelet microsomes
T1 sequence (P24557 1-533): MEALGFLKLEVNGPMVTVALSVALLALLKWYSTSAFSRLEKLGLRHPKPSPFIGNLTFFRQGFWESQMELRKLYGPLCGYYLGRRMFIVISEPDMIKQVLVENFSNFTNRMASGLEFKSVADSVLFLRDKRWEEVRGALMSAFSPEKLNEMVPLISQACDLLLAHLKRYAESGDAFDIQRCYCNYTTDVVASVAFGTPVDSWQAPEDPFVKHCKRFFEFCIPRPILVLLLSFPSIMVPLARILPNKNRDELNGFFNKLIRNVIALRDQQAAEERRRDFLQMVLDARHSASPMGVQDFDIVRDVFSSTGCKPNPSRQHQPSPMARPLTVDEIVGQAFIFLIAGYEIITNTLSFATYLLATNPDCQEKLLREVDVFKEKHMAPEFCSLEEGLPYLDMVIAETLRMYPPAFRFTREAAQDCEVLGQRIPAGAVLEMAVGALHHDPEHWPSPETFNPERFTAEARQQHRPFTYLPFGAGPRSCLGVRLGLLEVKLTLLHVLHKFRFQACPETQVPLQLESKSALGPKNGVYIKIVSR
Procedure: The compounds of the present invention were tested for TXA2 inhibition as follows:
Rabbit aortic strips were superfused in series with Krebs solution. Thromboxane A2 (TXA2) was generated by mixing prostaglandin H2 (PGH2) with human platelet microsomes (HPM).
Potential inhibitors were tested by comparing the response of the rabbit aorta to the amount of TXA2 produced by mixing PGH2 and HPM without the test compound in the reaction medium and then the amount of TXA2 produced when the test compound was added to the HPM 5 minutes before the HPM was mixed with PGH2. […] For a discussion of TXA2 synthetase inhibition testing see, e.g., R. Gorman, supra.

Compound | inhibitory activity on thromboxane synthetase (in words) (thromboxane synthetase) | effectiveness in inhibiting TXA2 formation (in words) (TXA2 synthetase)
CCCCCC=CC[C@@H](C=CC=CCC=CCCCC(=O)O)OO [12L-hydroperoxy-5,8,10,14-eicosatetraenoic acid] | very weak | –
c1cncc(-c2ccc3c(c2)CN2CN3Cc3cc(-c4cccnc4)ccc32)c1 [Example 1, 2,8-Di(3-pyridyl)-6H,12H-5,11-methanodibenzo[b,f][1,5]diazocine] | – | most effective
CC(Cc1ccc(O)c(O)c1)C(C)Cc1ccc(O)c(O)c1 (stereo not shown) [nordihydroguaiaretic acid] | very weak | –
sodium p-benzyl-4(1-oxo-2-(4-chlorobenzyl)-3-phenylpropyl)phenyl phosphate | very weak | –
